# Biological target: KRas G12C (Homo sapiens, UniProt P01116, G12C)
# Experiment: Cellular inhibition of KRas G12C measured by Phospho-ERK in NCI-H358 cells
# Format: cell-based
# Conditions: pERK(Thr202/Tyr204) normalized with GAPDH, NCI-H358 cells, 3 hours; read-out: IC50
# Protocol: Cells were plated in poly-D-Lysine coated 96-well plates at a concentration of 50,000 cells/well and allowed to attach for 8-12 hours. Diluted compounds were then added at a final concentration of 0.5% DMSO. After 3 hours, the medium was removed, 150 μL of 4% formaldehyde was added and the plates were incubated for 20 minutes. The plates were washed with PBS, and permeabilized using 150 μL of ice cold 100% methanol for 10 minutes. Non-specific antibody binding to the plates was blocked using 100 μL Licor Blocking Buffer (Li-Cor Biotechnology, Lincoln Nebr.) for 1 hour at room temperature. Positive control samples and samples lacking cells were parallel processed with test samples as standards.
# The amount Phospho-ERK was determined using an antibody specific for the phosphorylated form of ERK and compared to the amount of GAPDH. […] The plates were incubated for 2 hours at room temperature. The plates were washed with PBS+0.05% Tween 20.
# Secondary antibodies used to visualize primary antibodies were added as follows: Anti-rabbit-680 diluted 1:1000 and Anti-mouse-800 diluted 1:1000 in Licor Block+0.05% Tween 20 and incubated for 1 hour at room temperature. The plates were washed with PBS+0.05% Tween 20. A 100 μL aliquot of PBS was added to each well and the plates were read on a LICOR AERIUS plate reader.
# The pERK(Thr202/Tyr204) signal was normalized with the GAPDH signal and percent of DMSO control values were calculated. IC50 values were generated using a 4 parameter fit of the dose response curve. Key: “A”≥0.0001-≤1 μM; “B”>1 μM and ND=not determined.
# Chain of KRas G12C (P01116 1-188 isoform P01116-2 G12C): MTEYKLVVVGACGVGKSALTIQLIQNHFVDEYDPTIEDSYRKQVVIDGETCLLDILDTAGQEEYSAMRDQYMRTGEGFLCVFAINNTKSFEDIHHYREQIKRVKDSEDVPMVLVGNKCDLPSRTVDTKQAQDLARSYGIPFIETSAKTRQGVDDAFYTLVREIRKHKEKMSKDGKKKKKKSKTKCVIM
row,IC50,Structure (SMILES)
1,0.1 to 1000 nM,"C=CC(=O)N1CCN(c2nc(OC[C@@H]3CCCN3C)nc3c2CCN(c2cccc4cccc(C)c24)C3)C[C@H]1CC#N [Example 461, 2-[(2R)-4-[7-(8-methyl-1-naphthyl)-2-[[(2S)-1-methylpyrrolidin-2-yl]methoxy]-6,8-dihydro-5H-pyrido[3,4-d]pyrimidin-4-yl]-1-prop-2-enoyl-piperazin-2-yl]acetonitrile]"
2,> 1000 nM,"C=CC(=O)N1CCN(c2nc(O[C@H](C)CN(C)C)nc3c2CCN(c2c(C)cccc2O)C3)CC1 [Example 95, (R)-1-(4-(2-((1-(dimethylamino)propan-2-yl)oxy)-7-(2-hydroxy-6-methylphenyl)-5,6,7,8-tetrahydropyrido[3,4-d]pyrimidin-4-yl)piperazin-1-yl)prop-2-en-1-one]"
3,> 1000 nM,"C=CC(=O)N1CCN(c2nc(OCCN3CCOCC3)nc3c2CCN(c2cc(O)cc4ccccc24)C3)CC1 [Example 117, 1-(4-(7-(3-hydroxynaphthalen-1-yl)-2-(2-morpholinoethoxy)-5,6,7,8-tetrahydropyrido[3,4-d]pyrimidin-4-yl)piperazin-1-yl)prop-2-en-1-one]"
4,> 1000 nM,"C=CC(=O)N1CCN(c2ncnc3c2CCN(c2cc(O)cc4ccccc24)C3)CC1 [Example 1, 1-(4-(7-(3-hydroxynaphthalen-1-yl)-5,6,7,8-tetrahydropyrido[3,4-d]pyrimidin-4-yl)piperazin-1-yl)prop-2-en-1-one]"
5,0.1 to 1000 nM,"C=CC(=O)N1CCN(c2nc(OCCCN3CCCOCC3)nc3c2CCN(c2cc(O)cc4ccccc24)C3)CC1 [Example 101, 1-(4-(2-(3-(1,4-oxazepan-4-yl)propoxy)-7-(3-hydroxynaphthalen-1-yl)-5,6,7,8-tetrahydropyrido[3,4-d]pyrimidin-4-yl)piperazin-1-yl)prop-2-en-1-one]"
6,0.1 to 1000 nM,"C=CC(=O)N1CCN(c2nc(OC[C@H]3CCCN3C)nc3c2CCN(c2ccccc2C(F)(F)F)C3)CC1CC#N (stereo partly drawn) [Example 283, 2-(1-acryloyl-4-(2-(((R)-1-methylpyrrolidin-2-yl)methoxy)-7-(2-(trifluoromethyl)phenyl)-5,6,7,8-tetrahydropyrido[3,4-d]pyrimidin-4-yl)piperazin-2-yl)acetonitrile]"
7,0.1 to 1000 nM,"CN(C)C/C=C/C(=O)N1CCN(c2nc(OC[C@H]3CCCN3C)nc3c2CCN(c2cccc(Cl)c2C(F)(F)F)C3)C[C@@H]1CC#N [Example 423, 2-((S)-4-(7-(3-chloro-2-(trifluoromethyl)phenyl)-2-(((R)-1-methylpyrrolidin-2-yl)methoxy)-5,6,7,8-tetrahydropyrido[3,4-d]pyrimidin-4-yl)-1-((E)-4-(dimethylamino)but-2-enoyl)piperazin-2-yl)acetonitrile]"
8,0.1 to 1000 nM,"C=CC(=O)N1CCN(c2nc(OC[C@H]3C[C@H](O)CN3C)nc3c2CCN(c2cccc4ccccc24)C3)C[C@@H]1CC#N [Example 323, 2-[(2S)-4-[2-[[(2R,4S)-4-hydroxy-1-methyl-pyrrolidin-2-yl]methoxy]-7-(1-naphthyl)-6,8-dihydro-5H-pyrido[3,4-d]pyrimidin-4-yl]-1-prop-2-enoyl-piperazin-2-yl]acetonitrile]"
9,0.1 to 1000 nM,"C=C(F)C(=O)N1CCN(c2nc(OC[C@@H]3CC(C)(C)CN3C)nc3c2CCN(c2cccc4cccc(C)c24)C3)C[C@@H]1CC#N [Example 615, 2-[(2S)-1-(2-fluoroprop-2-enoyl)-4-[7-(8-methyl-1-naphthyl)-2-[[(2S)-1,4,4-trimethylpyrrolidin-2-yl]methoxy]-6,8-dihydro-5H-pyrido[3,4-d]pyrimidin-4-yl]piperazin-2-yl]acetonitrile]"
10,0.1 to 1000 nM,"C=CC(=O)N1CCN(c2nc(OC[C@@H]3CCC(C)(C)N3C)nc3c2CCN(c2cccc4ccccc24)C3)CC1CC#N (stereo partly drawn) [Example 301, 2-[4-[7-(1-naphthyl)-2-[[(2S)-1,5,5-trimethylpyrrolidin-2-yl]methoxy]-6,8-dihydro-5H-pyrido[3,4-d]pyrimidin-4-yl]-1-prop-2-enoyl-piperazin-2-yl]acetonitrile]"
11,> 1000 nM,"C=CC(=O)N1CCN(c2nc(OCCN3CCCC3)nc3c2CCN(c2cc(O)cc4ccccc24)C3)CC1 [Example 85, 1-(4-(7-(3-hydroxynaphthalen-1-yl)-2-(2-(pyrrolidin-1-yl)ethoxy)-5,6,7,8-tetrahydropyrido[3,4-d]pyrimidin-4-yl)piperazin-1-yl)prop-2-en-1-one]"
12,> 1000 nM,"C=CC(=O)N1CCN(c2nc(OCCCN3CCOCC3)nc3c2CCN(c2cc(O)cc(Cl)c2F)C3)CC1 [Example 232, 1-(4-(7-(3-chloro-2-fluoro-5-hydroxyphenyl)-2-(3-morpholinopropoxy)-5,6,7,8-tetrahydropyrido[3,4-d]pyrimidin-4-yl)piperazin-1-yl)prop-2-en-1-one]"
13,0.1 to 1000 nM,"C=CC(=O)N1CCN(c2nc(OCCCN3CCCC3)nc3c2CCN(c2cc(O)cc4ccccc24)C3)CC1 [Example 39, 1-(4-(7-(3-hydroxynaphthalen-1-yl)-2-(3-(pyrrolidin-1-yl)propoxy)-5,6,7,8-tetrahydropyrido[3,4-d]pyrimidin-4-yl)piperazin-1-yl)prop-2-en-1-one]"
14,0.1 to 1000 nM,"C=CC(=O)N1CCN(c2nc(OC[C@@H]3CCCN3C)nc3c2CCN(c2c(C)ccc(F)c2C)C3)C[C@@H]1CC#N [Example 349, 2-((S)-1-acryloyl-4-(7-(3-fluoro-2,6-dimethylphenyl)-2-(((S)-1-methylpyrrolidin-2-yl)methoxy)-5,6,7,8-tetrahydropyrido[3,4-d]pyrimidin-4-yl)piperazin-2-yl)acetonitrile]"
15,0.1 to 1000 nM,C=CC(=O)N1CCN(c2nc(OC[C@@H]3CCCN3C)nc3c2CCN(c2cc(O)cc4ccccc24)C3)C[C@@H]1CC#N [Example 317]
16,0.1 to 1000 nM,"C=CC(=O)N1CCN(c2nc(OC[C@H]3CN(C)CCO3)nc3c2CCN(c2cccc4ccccc24)C3)C[C@@H]1CC#N [Example 450, 2-((S)-1-Acryloyl-4-(2-(((R)-4-methylmorpholin-2-yl)methoxy)-7-(naphthalen-1-yl)-5,6,7,8-tetrahydropyrido[3,4-d]pyrimidin-4-yl)piperazin-2-yl)acetonitrile]"
17,0.1 to 1000 nM,"CN1CCC[C@H]1COc1nc2c(c(N3CCN(C(=O)C#CCO)[C@@H](CC#N)C3)n1)CCN(c1cccc3cccc(Cl)c13)C2 [Example 483, 2-[(2S)-4-[7-(8-chloro-1-naphthyl)-2-[[(2S)-1-methylpyrrolidin-2-yl]methoxy]-6,8-dihydro-5H-pyrido[3,4-d]pyrimidin-4-yl]-1-(4-hydroxybut-2-ynoyl)piperazin-2-yl]acetonitrile]"
18,0.1 to 1000 nM,"C=CC(=O)N1CCN(c2nc(OC[C@H]3CCCN3C)nc3c2CCN(c2cccc(Cl)c2C(F)(F)F)C3)C[C@@H]1CC#N [Example 319, 2-((S)-1-acryloyl-4-(7-(3-chloro-2-(trifluoromethyl)phenyl)-2-(((R)-1-methylpyrrolidin-2-yl)methoxy)-5,6,7,8-tetrahydropyrido[3,4-d]pyrimidin-4-yl)piperazin-2-yl)acetonitrile]"
19,> 1000 nM,"C=CC(=O)N1CCN(c2nc(O[C@H](C)CN(C)C)nc3c2CCN(c2cc(OC(F)(F)F)ccc2O)C3)CC1 [Example 86, (R)-1-(4-(2-((1-(dimethylamino)propan-2-yl)oxy)-7-(2-hydroxy-5-(trifluoromethoxy)phenyl)-5,6,7,8-tetrahydropyrido[3,4-d]pyrimidin-4-yl)piperazin-1-yl)prop-2-en-1-one]"
20,> 1000 nM,C=CC(=O)N1CCN(c2nc(OCCN3CCC(F)(F)CC3)nc3c2CCN(c2cc(O)cc4ccccc24)C3)CC1 [Example 109]
21,0.1 to 1000 nM,"C=CC(=O)N1CCN(c2nc(OC[C@@H]3CCCN3C)nc3c2CCN(c2cccc(OC)c2C(F)(F)F)C3)C[C@@H]1CC#N [Example 330, 2-[(2S)-4-[7-[3-methoxy-2-(trifluoromethyl)phenyl]-2-[[(2S)-1-methylpyrrolidin-2-yl]methoxy]-6,8-dihydro-5H-pyrido[3,4-d]pyrimidin-4-yl]-1-prop-2-enoyl-piperazin-2-yl]acetonitrile]"
22,0.1 to 1000 nM,"CN1CCC[C@H]1COc1nc2c(c(N3CCN(C(=O)/C=C/CN4CCOCC4)[C@@H](CC#N)C3)n1)CCN(c1cccc(Cl)c1C(F)(F)F)C2 [Example 346, 2-[(2S)-4-[7-[3-chloro-2-(trifluoromethyl)phenyl]-2-[[(2S)-1-methylpyrrolidin-2-yl]methoxy]-6,8-dihydro-5H-pyrido[3,4-d]pyrimidin-4-yl]-1-[(E)-4-morpholinobut-2-enoyl]piperazin-2-yl]acetonitrile]"
23,0.1 to 1000 nM,"CN(C)C/C=C/C(=O)N1CCN(c2nc(OC[C@@H]3C[C@@H](O)CN3C)nc3c2CCN(c2cccc(F)c2C(F)(F)F)C3)C[C@@H]1CC#N [Example 342, 2-[(2S)-1-[(E)-4-(dimethylamino)but-2-enoyl]-4-[7-[3-fluoro-2-(trifluoromethyl)phenyl]-2-[[(2S,4R)-4-hydroxy-1-methyl-pyrrolidin-2-yl]methoxy]-6,8-dihydro-5H-pyrido[3,4-d]pyrimidin-4-yl]piperazin-2-yl]acetonitrile]"
24,> 1000 nM,"C=CC(=O)N1CCN(c2nc(OCC(O)CO)nc3c2CCN(c2cc(O)cc4ccccc24)C3)CC1 (stereo not drawn) [Example 143, 1-[4-[2-(2,3-dihydroxypropoxy)-7-(3-hydroxy-1-naphthyl)-6,8-dihydro-5H-pyrido[3,4-d]pyrimidin-4-yl]piperazin-1-yl]prop-2-en-1-one]"

# Reference: US10689377B2 (Mirati Therapeutics, Inc., priority 2017, dated 2020)
